Assay: xn = mol fraction of the nth substance listed
Conditions: 101.3 kPa, Liquid; for viscosity: Capillary tube (Ostwald / Ubbelohde) method; for mass density: Pycnometric method

Nc1ccccc1 [aniline] + CN(C)C=O
Conditions	mass density, 298.15 K [kg/m3]	mass density, 303.15 K [kg/m3]	mass density, 308.15 K [kg/m3]	mass density, 313.15 K [kg/m3]	viscosity, 298.15 K [mPa·s]	viscosity, 303.15 K [mPa·s]	viscosity, 308.15 K [mPa·s]	viscosity, 313.15 K [mPa·s]
x2 = 0	1017.2	1012.9	1008.6	1004.2	3.69	3.19	2.8	2.42
x2 = 0.1293	1010.3	1006	1001.7	997.3	3.296	2.864	2.521	2.186
x2 = 0.2582	1005.8	1001.5	997.2	992.9	2.908	2.54	2.242	1.952
x2 = 0.3548	1000.5	996.2	991.9	987.6	2.621	2.298	2.034	1.779
x2 = 0.4642	993.9	989.5	985.1	980.7	2.3	2.025	1.8	1.583
x2 = 0.5537	987.6	983.2	978.9	974.5	2.04	1.803	1.611	1.423
x2 = 0.6614	978.8	974.3	969.8	965.3	1.731	1.543	1.387	1.237
x2 = 0.7558	969.2	964.8	960.4	955.9	1.466	1.319	1.194	1.079
x2 = 0.8302	961.4	957	952.6	948.1	1.257	1.145	1.044	0.954
x2 = 0.9123	952.3	947.7	943.1	938.4	1.038	0.955	0.88	0.819
